Laboratory results reported in PubChem BioAssay AID1918999 (Molecular Pharmacology Branch, DTP, NCI, 2023).

Test system: 556581-035-R-J1-PDC complex spheroid growth
Assay: Anticancer human tumor 556581-035-R-J1-PDC patient-derived ovarian carcinoma cell line growth inhibition [AhR]
Conditions: for IC50: curve of first compound; for viability, T/C: stronger effect = lower value; active means viability on the fitted dose curve at most 10% of control; inactive means the rest
Description: Multicellular complex tumor spheroid response to aryl hydrocarbon receptor antagonists in combination with a variety of drugs and investigational agents in selected tumor cell lines
The current study was undertaken to assess response to aryl hydrocarbon receptor antagonists in combination with standard-of-care drugs and investigational agents in solid tumor complex spheroid models. Complex spheroids include a stromal component modeled by human endothelial cells (HUVEC) and fibroblasts modeled by human mesenchymal stem cells (MSCs). The concentration ranges selected for each drug and investigational agent were based upon clinically achievable concentrations if the clinical Cmax of the agent was known.
Compounds. The drugs and investigational agents: BAY 2416964 (NSC825713), GNF351 (NSC835774), CH-223191 (NSC835775), CPI-455 (NSC825282), aza-TdCyd (NSC777586), decitabine (NSC127716), belinostat (NSC758774), entinostat (NSC756642), pevonedistat (NSC761192), tazemetostat (NSC777109), talazoparib (NSC765396), olaparib (NSC753686), selinexor (NSC780203), nedisertib (M3814, NSC802822), bortezomib (NSC756655), venetoclax (NSC766270), doxorubicin (NSC123127), elimusertib (BAY189344, NSC800525), ceralasertib (AZD6738, NSC777638), TAK-243 (NSC785004), alisertib (NSC759677), etoposide (NSC141540), topotecan (NSC609699), eribulin (NSC707389), gemcitabine (NSC613327), carboplatin (NSC241240), cisplatin (NSC119875), and SN-38 (NSC673596) were obtained from the National Cancer Institute (NCI) Developmental Therapeutics Program Chemical Repository (32). The FDA-approved anticancer drug set is available from the Developmental Therapeutics Program at https://dtp.cancer.gov/organization/dscb/obtaining/available plates.htm. […] The stock solutions were prepared in dimethyl sulfoxide (DMSO, Sigma-Aldrich, St. Louis, MO, cat. D2650), except for the platinum compounds which were prepared in saline (Quality Biological, Gaithersburg, MD, cat. 114-055-101), at 800-fold the tested concentration and stored at -70 degrees C prior to their use. All drugs and investigational agents were tested over a range starting from a high concentration at or near the clinical Cmax and decreasing in half-log increments. If the clinical Cmax for an agent had not been determined, the highest concentration tested was 10 microM (Table 1).
Cell Culture. All cells were maintained in an incubator at 37 degrees C and 5% CO2 with 95% humidity. The PDC lines were cultured according to standard operating procedures established by the NCI PDMR (https://pdmr.cancer.gov). Briefly, all PDCs were thawed and cultured in Matrigel-coated flasks prepared with a working solution of 1X Ham's F-12 nutrient mix, without supplementation (Invitrogen, Waltham, MA, cat. 11765054), 100 U/mL penicillin-streptomycin (Invitrogen, cat. 15140122), and 2.5% Matrigel (Corning Inc., Corning, NY, cat. 354248) for the first three passages. All PDCs were cultured in complete DMEM/F-12 media containing advanced DMEM/F-12 (Invitrogen, cat. 12634028), 4.9% defined fetal bovine serum, heat inactivated (HyClone Laboratories Inc., Logan, UT, cat. SH30070.03HI), 389 ng/mL hydrocortisone (Sigma-Aldrich, cat. H4001), 9.7 ng/mL human EGF recombinant protein (Invitrogen, cat. PHG0313), 23.4 microg/mL adenine (Sigma-Aldrich, cat. A2786), 97.3 U/mL penicillin-streptomycin (Invitrogen, cat. 15140122), 1.9 mM L-glutamine (Invitrogen, cat. 25030081), and 9.7 microM Y-27632 dihydrochloride (Tocris Bioscience, Bristol, United Kingdom, cat. 1254). The PDCs were cultured in complete DMEM/F12 media without 10 microM Y-27632 dihydrochloride for at least two passages prior to the screen. The established cell lines NCI-H1341 and […] were cultured in DMEM/F-12, HEPES (Invitrogen, cat. 11330032), 5% defined fetal bovine serum (HyClone Laboratories Inc., cat. SH30070.03), ITS premix universal culture supplement [insulin (5 microg/mL), transferrin (5 microg/mL), and selenious acid (5 ng/mL)] […]

[1] = second compound 0.1 µM, first compound 0.0316 µM
[2] = second compound 0.1 µM, first compound 0.1 µM
[3] = second compound 0.1 µM, first compound 0.316 µM
[4] = second compound 0.1 µM, first compound 1 µM
[5] = second compound 0.1 µM, first compound 3.16 µM
[6] = second compound 0.1 µM, first compound 10 µM
[7] = second compound 0.316 µM, first compound 0.0316 µM
[8] = second compound 0.316 µM, first compound 0.1 µM
[9] = second compound 0.316 µM, first compound 0.316 µM
[10] = second compound 0.316 µM, first compound 1 µM
[11] = second compound 0.316 µM, first compound 3.16 µM
[12] = second compound 0.316 µM, first compound 10 µM
[13] = second compound 1 µM, first compound 0.0316 µM
[14] = second compound 1 µM, first compound 0.1 µM
[15] = second compound 1 µM, first compound 0.316 µM
[16] = second compound 1 µM, first compound 1 µM
[17] = second compound 1 µM, first compound 3.16 µM
[18] = second compound 1 µM, first compound 10 µM
[19] = second compound 3.16 µM, first compound 0.0316 µM
[20] = second compound 3.16 µM, first compound 0.1 µM
[21] = second compound 3.16 µM, first compound 0.316 µM
[22] = second compound 3.16 µM, first compound 1 µM
[23] = second compound 3.16 µM, first compound 3.16 µM
[24] = second compound 3.16 µM, first compound 10 µM
[25] = second compound 10 µM, first compound 0.0316 µM
[26] = second compound 10 µM, first compound 0.1 µM
[27] = second compound 10 µM, first compound 0.316 µM
[28] = second compound 10 µM, first compound 1 µM
[29] = second compound 10 µM, first compound 3.16 µM
[30] = second compound 10 µM, first compound 10 µM
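Wherever viability, T/C is given: compound exposure lasted 7 days.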

COc1cc(C2c3cc4c(cc3C(OC3OC5COC(C)OC5C(O)C3O)C3COC(=O)C23)OCO4)cc(OC)c1O (stereo not given) + CC(CO)NC(=O)c1cc(-c2ccc(Cl)cc2)nn(-c2cnn(C)c2)c1=O
7380 nM: IC50 (second compound 10 µM)
> 10000 nM: IC50 (second compound 0.1 µM) | IC50 (second compound 1 µM)
inactive: viability, T/C [1] 111% | viability, T/C [2] 117% | viability, T/C [3] 80% | viability, T/C [4] 62.9% | viability, T/C [5] 66% | viability, T/C [6] 50.9% | viability, T/C [7] 95.4% | viability, T/C [8] 102% | viability, T/C [9] 85.6% | viability, T/C [10] 67.8% | viability, T/C [11] 72.8% | viability, T/C [12] 44.6% | viability, T/C [13] 109% | viability, T/C [14] 104% | viability, T/C [15] 81.9% | viability, T/C [16] 62.6% | viability, T/C [17] 60.5% | viability, T/C [18] 51.8% | viability, T/C [19] 103% | viability, T/C [20] 102% | viability, T/C [21] 80% | viability, T/C [22] 74.5% | viability, T/C [23] 59.9% | viability, T/C [24] 44.5% | viability, T/C [25] 105% | viability, T/C [26] 98.8% | viability, T/C [27] 81.7% | viability, T/C [28] 73.5% | viability, T/C [29] 59.7% | viability, T/C [30] 46.4%
6630 nM: IC50 (second compound 3.16 µM)
8090 nM: IC50 (second compound 0.316 µM)

COc1cccc2c1C(=O)c1c(O)c3c(c(O)c1C2=O)CC(O)(C(=O)CO)CC3OC1CC(N)C(O)C(C)O1 (stereo not given) + CC(CO)NC(=O)c1cc(-c2ccc(Cl)cc2)nn(-c2cnn(C)c2)c1=O
361 nM: IC50 (second compound 10 µM)
445 nM: IC50 (second compound 1 µM)
396 nM: IC50 (second compound 0.316 µM)
inactive: viability, T/C [1] 89.7% | viability, T/C [2] 80.7% | viability, T/C [3] 58.7% | viability, T/C [4] 16.1% | viability, T/C [7] 83.9% | viability, T/C [8] 79.3% | viability, T/C [9] 58.1% | viability, T/C [10] 17.5% | viability, T/C [13] 85% | viability, T/C [14] 87.3% | viability, T/C [15] 64.8% | viability, T/C [16] 14.5% | viability, T/C [19] 75.8% | viability, T/C [20] 79.4% | viability, T/C [21] 55.9% | viability, T/C [22] 13.1% | viability, T/C [25] 88.9% | viability, T/C [26] 87% | viability, T/C [27] 56%
393 nM: IC50 (second compound 0.1 µM)
active: viability, T/C [5] 3.94% | viability, T/C [6] 3.84% | viability, T/C [11] 4.59% | viability, T/C [12] 3.12% | viability, T/C [17] 3.33% | viability, T/C [18] 3.66% | viability, T/C [23] 4.03% | viability, T/C [24] 3.23% | viability, T/C [28] 3.3% | viability, T/C [29] 1.46% | viability, T/C [30] 3.96%
375 nM: IC50 (second compound 3.16 µM)

Nc1ncn(C2CC(O)C(CO)O2)c(=O)n1 (stereo not given) + CC(CO)NC(=O)c1cc(-c2ccc(Cl)cc2)nn(-c2cnn(C)c2)c1=O
inactive: viability, T/C (second compound 0.1 µM, first compound 0.00316 µM) 92.5% | viability, T/C (second compound 0.1 µM, first compound 0.01 µM) 89.9% | viability, T/C [1] 84.9% | viability, T/C [2] 77.1% | viability, T/C [3] 78.7% | viability, T/C [4] 70.4% | viability, T/C (second compound 0.316 µM, first compound 0.00316 µM) 88.4% | viability, T/C (second compound 0.316 µM, first compound 0.01 µM) 95% | viability, T/C [7] 84.3% | viability, T/C [8] 78.4% | viability, T/C [9] 71.9% | viability, T/C [10] 72.4% | viability, T/C (second compound 1 µM, first compound 0.00316 µM) 85% | viability, T/C (second compound 1 µM, first compound 0.01 µM) 104% | viability, T/C [13] 85.3% | viability, T/C [14] 81.8% | viability, T/C [15] 72.3% | viability, T/C [16] 72.2% | viability, T/C (second compound 3.16 µM, first compound 0.00316 µM) 95.4% | viability, T/C (second compound 3.16 µM, first compound 0.01 µM) 90.7% | viability, T/C [19] 87.3% | viability, T/C [20] 75.2% | viability, T/C [21] 70.1% | viability, T/C [22] 68.9% | viability, T/C (second compound 10 µM, first compound 0.00316 µM) 97.5% | viability, T/C (second compound 10 µM, first compound 0.01 µM) 99.6% | viability, T/C [25] 92.3% | viability, T/C [26] 81.8% | viability, T/C [27] 80% | viability, T/C [28] 77.1%
> 1000 nM: IC50 (second compound 0.1 µM) | IC50 (second compound 0.316 µM) | IC50 (second compound 1 µM) | IC50 (second compound 3.16 µM) | IC50 (second compound 10 µM)
